Like-named read-outs stand apart in the source and are kept apart here.
Key:
[1] = system: T. cruzi bloodstream trypomastigotes INC-5 strain; assay: microbe, parasite or virus in culture; type: cell-based; conditions: for CC50: bloodstream trypomastigotes, 24 h at 4 °C (called IC50 in abstract), read-out: LC50 INC-5 Strain
Protocol: (§1) In this study, two strains of T. cruzi isolated in Mexico were used. T. cruzi NINOA strain (MHOM/MX/1994/NINOA) was obtained from a patient with acute Chagas disease and T. cruzi INC-5 (MHOM/MX/1994/INC5) was isolated from a patient in the chronic phase of the disease. Epimastigotes were cultured in vitro in liver infusion-tryptose (LIT) medium supplemented with 10% heat inactivated fetal bovine serum (FBS) (Gibco) and 100 U/mL penicillin-streptomycin (In vitro S.A.), and incubated at 27 °C. CD1 mice, aged 6–8 weeks, were infected with T. cruzi to obtain bloodstream trypomastigote samples. Animal experiments were performed according to Norma Oficial Mexicana (NOM-062-Z00-1999) published on 22 August, 2009.
(§2) CD1 female mice 6–8 weeks old were infected with T. cruzi bloodstream trypomastigotes of the INC-5 and NINOA strains. The course of infection continued for 4–6 weeks. At the peak of parasitemia blood was obtained by cardiac puncture using sodium heparin as an anticoagulant. The blood was adjusted to 1 × 10^6 bloodstream trypomastigotes/mL.
(§3) In each well of the 96-well plate, 195 μL of infected blood and 5 μL of quinoxaline 1,4-di-N-oxide derivatives or reference drug dilutions were seeded, with each well reaching a final volume of 200 µL. Each assay was performed in triplicate. Initially, all compounds were tested at 50 μg/mL. […] As a negative control of lysis, wells with untreated blood trypomastigotes were used, and as a positive control, wells with the reference drugs were used. The microplates were incubated at 4 °C for 24 h. Bloodstream trypomastigotes were quantified by the method of Brener-Pizzi, 5 μL of blood were placed on a slide and covered with a coverslip 13 × 13 mm. The mobile protozoa were counted in 15 fields at 40× magnification using an optical microscope. The percentage lysis was determined by comparing the remaining trypomastigotes against the negative control. LC50 was determined with the Probit statistical tool. The results were later converted to micromolar units.

[2] = system: T. cruzi bloodstream trypomastigotes NINOA strain; assay: microbe, parasite or virus in culture; type: cell-based; conditions: Trypanosoma cruzi
Protocol: as §1, §2, §3

recombinant T. cruzi TR = target: T1, recombinant T. cruzi TR (Trypanosoma cruzi, UniProt P28593); assay: TR enzyme inhibition (NADPH consumption at 340 nm); type: biochemical; conditions: for inhibition at 5 µM: inhibitor 5 µM; for inhibition at 10 µM: inhibitor 10 µM; for inhibition at 20 µM: inhibitor 20 µM; for inhibition at 40 µM: inhibitor 40 µM; for inhibition at 60 µM: inhibitor 60 µM; for inhibition at 80 µM: inhibitor 80 µM, T-085 precipitates in the assay at 80 µM
T1 construct: made in house
T1 sequence (P28593 whole entry): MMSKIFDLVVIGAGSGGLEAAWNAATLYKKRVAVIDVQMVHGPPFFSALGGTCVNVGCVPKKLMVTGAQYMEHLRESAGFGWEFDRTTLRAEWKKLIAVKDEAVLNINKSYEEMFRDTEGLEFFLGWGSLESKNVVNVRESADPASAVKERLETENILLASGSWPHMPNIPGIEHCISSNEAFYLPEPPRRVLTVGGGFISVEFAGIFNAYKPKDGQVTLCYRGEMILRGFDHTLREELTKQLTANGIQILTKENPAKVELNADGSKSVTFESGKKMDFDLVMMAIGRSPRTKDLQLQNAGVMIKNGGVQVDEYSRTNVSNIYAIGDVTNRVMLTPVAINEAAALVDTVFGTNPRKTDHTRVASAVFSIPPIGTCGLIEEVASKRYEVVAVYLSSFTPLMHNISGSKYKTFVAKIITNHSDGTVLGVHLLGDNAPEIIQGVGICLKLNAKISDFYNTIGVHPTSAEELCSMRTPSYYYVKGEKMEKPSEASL
Protocol: Trypanothione disulfide (TS2) and recombinant T. cruzi TR were prepared following published procedures. Recombinant human glutathione reductase (GR) was kindly provided by Dr. Heiner Schirmer, Heidelberg Germany. Stock solutions (5 mM) of the inhibitors were prepared in DMSO. The kinetic analyses were conducted using a Jasco V650 spectrophotometer. All enzymatic tests were performed in polystyrene optical cuvettes (10 × 4 × 45 mm). TR activity was measured at 25 °C in a total volume of 1 mL TR assay buffer (40 mM HEPES, 1 mM EDTA, pH 7.5 [47]) containing 100 μM NADPH and 5–10 mU enzyme in the absence and presence of the inhibitor. Each assay contained a total of 5% DMSO. The reaction was started by adding TS2 and NADPH consumption was followed at 340 nm.
Five compound concentrations were used ranging from 100–5 μM. All measurements were performed twice in three independent series. Enzyme activity was plotted versus increasing inhibitor concentrations. IC50 values were calculated using the four-parameter equation model 205 and the option “unlock” from the XLfit add-in (IDBS, Guildford, United Kingdom) for Excel (Microsoft Corporation, Redmond, WA, USA).
The type of inhibition and the inhibitor constants were derived from Lineweaver-Burk plot. The activity of TR was measured in the absence and presence of two to three constant concentrations of inhibitor varying the concentration of TS2 (20, 40, 60, 100 and 200 µM). The inhibitory constant Ki was calculated from the direct plot using nonlinear least-squares data fitting in Excel spreadsheet.

[3] = system: T. cruzi INC-5 epimastigotes; assay: Viability (MTT) assay on T. cruzi epimastigotes; type: cell-based, Trypanosoma cruzi; conditions: 24 h, mean and SD of triplicate
Protocol: In this study, two strains of T. cruzi isolated in Mexico were used. […] Epimastigotes were cultured in vitro in liver infusion-tryptose (LIT) medium supplemented with 10% heat inactivated fetal bovine serum (FBS) (Gibco) and 100 U/mL penicillin-streptomycin (In vitro S.A.), and incubated at 27 °C. CD1 mice, aged 6–8 weeks, were infected with T. cruzi to obtain bloodstream trypomastigote samples.
Viability assays of T. cruzi epimastigotes using 3-(4,5-dimethylthiazol-2-yl)-2,5-diphenyltetrazolium bromide (MTT) were performed. Briefly, the parasites were harvested during the exponential growth phase for a period of five days. In a 96-well microplate 1x10^6 epimastigotes were deposited in brain-heart infusion (BHI) medium supplemented with 10% FBS and 100 U/mL antibiotic-antifungal mixture (Gibco). […] Each well reached a final volume of 100 µL. Each condition was assessed in triplicate. The microplate was incubated for 24 h at 27 °C in darkness. Afterwards, 10 μL of a 5 mg/mL MTT solution was added and the plate was incubated for 20 h at 27 °C. Then 200 μL of 10% dodecyl sulfate (SDS)/0.1% HCl solution was added to dissolve formazan salts; the plate was incubated an additional 4 h. Finally, the plate was read at 570 nm in a spectrophotometer (Multiskan EX Thermo Electron, Taipei, Taiwan). The amount of viable cells was proportional to the amount of formazan produced. […] Later the results were converted to micromolar units. […] As a […] control, parasites were incubated only in culture medium with a 1% DMSO concentration, corresponding to the highest sample dilution of DMSO [34, 35, 36].

[4] = 40 µM TS2, read-out: % Inhibition of TR at 40 µM [TS2]
[5] = 100 µM TS2, read-out: % Inhibition of TR at 100 µM [TS2]

SMILES: CC(C)OC(=O)c1ccc2c(c1)[n+]([O-])c(C(=O)C(C)C)c(C(F)(F)F)[n+]2[O-] [Compound T-085, Isopropyl 2-isobutyryl-3-trifluoromethylquinoxaline-7-carboxylate 1,4-di-N-oxide]
- CC50 ([1]; Trypanosoma cruzi, 24 h): 73 µM
- killing at 50 µg/mL ([1]; Trypanosoma cruzi, 50 μg/mL, 24 h at 4 °C, infected mouse blood, read-out: % Lysis at 50 μg/mL INC-5 Strain): 76.2 ± 1.2%
- CC50 [1]: 73.1 ± 12.4 µM
- LC50 ([2]; 24 h): 59.9 ± 7.9 µM
- killing at 50 µg/mL ([2]; 50 μg/mL, 24 h at 4 °C, infected mouse blood, read-out: % Lysis at 50 μg/mL NINOA Strain): 74.2 ± 6.4%
- type of inhibition (recombinant T. cruzi TR; TcTR, Lineweaver-Burk plot): non-competitive inhibitor
- Ki (recombinant T. cruzi TR; TcTR, Lineweaver-Burk plot, inhibitor 15 and 50 µM, TS2 20-200 µM): 35 µM
- inhibition at 5 µM (recombinant T. cruzi TR; [4]): 20.3%
- inhibition at 5 µM (recombinant T. cruzi TR; [5]): 15.2%
- inhibition at 10 µM (recombinant T. cruzi TR; [4]): 34.1%
- inhibition at 10 µM (recombinant T. cruzi TR; [5]): 24.7%
- inhibition at 20 µM (recombinant T. cruzi TR; [4]): 45.7%
- inhibition at 20 µM (recombinant T. cruzi TR; [5]): 36.1%
- inhibition at 40 µM (recombinant T. cruzi TR; [4]): 55.1%
- inhibition at 40 µM (recombinant T. cruzi TR; [5]): 48.1%
- inhibition at 60 µM (recombinant T. cruzi TR; the highest concentration that could be measured, 100 μM or 40 μM TS2, read-out: % inhibition of TR): 60%
- inhibition at 60 µM (recombinant T. cruzi TR; [4]): 60.9%
- inhibition at 60 µM (recombinant T. cruzi TR; [5]): 60.1%
- inhibition at 80 µM (recombinant T. cruzi TR; [4]): 44%
- inhibition at 80 µM (recombinant T. cruzi TR; [5]): 33%
- IC50 (recombinant T. cruzi TR; inhibitor 5-60 μM, read-out: IC50 against TcTR): 50 µM
- IC50 [3]: 2420 ± 500 nM
- IC50 ([3]; Trypanosoma cruzi): < 2500 nM

Reference: paper PMC6155662, “Trypanocidal Activity of Quinoxaline 1,4 Di-N-oxide Derivatives as Trypanothione Reductase Inhibitors” (Molecules : A Journal of Synthetic Chemistry and Natural …, 2017)
